Where two headings read alike, the source gives them in different places. Blank lines part the entries; values can stand above or below the molecule they belong to.
Assays:
[1] = target: human mGlu2 (Homo sapiens, UniProt Q14416); conditions: low nanomolar range; read-out: EC50 against human mGlu2 receptors in vitro; cited from earlier work
[2] = target: human mGlu3 (Homo sapiens, UniProt Q14832); conditions: low nanomolar range; read-out: EC50 against human mGlu3 receptors in vitro; cited from earlier work
human mGlu3, sequence (Q14832 23-879): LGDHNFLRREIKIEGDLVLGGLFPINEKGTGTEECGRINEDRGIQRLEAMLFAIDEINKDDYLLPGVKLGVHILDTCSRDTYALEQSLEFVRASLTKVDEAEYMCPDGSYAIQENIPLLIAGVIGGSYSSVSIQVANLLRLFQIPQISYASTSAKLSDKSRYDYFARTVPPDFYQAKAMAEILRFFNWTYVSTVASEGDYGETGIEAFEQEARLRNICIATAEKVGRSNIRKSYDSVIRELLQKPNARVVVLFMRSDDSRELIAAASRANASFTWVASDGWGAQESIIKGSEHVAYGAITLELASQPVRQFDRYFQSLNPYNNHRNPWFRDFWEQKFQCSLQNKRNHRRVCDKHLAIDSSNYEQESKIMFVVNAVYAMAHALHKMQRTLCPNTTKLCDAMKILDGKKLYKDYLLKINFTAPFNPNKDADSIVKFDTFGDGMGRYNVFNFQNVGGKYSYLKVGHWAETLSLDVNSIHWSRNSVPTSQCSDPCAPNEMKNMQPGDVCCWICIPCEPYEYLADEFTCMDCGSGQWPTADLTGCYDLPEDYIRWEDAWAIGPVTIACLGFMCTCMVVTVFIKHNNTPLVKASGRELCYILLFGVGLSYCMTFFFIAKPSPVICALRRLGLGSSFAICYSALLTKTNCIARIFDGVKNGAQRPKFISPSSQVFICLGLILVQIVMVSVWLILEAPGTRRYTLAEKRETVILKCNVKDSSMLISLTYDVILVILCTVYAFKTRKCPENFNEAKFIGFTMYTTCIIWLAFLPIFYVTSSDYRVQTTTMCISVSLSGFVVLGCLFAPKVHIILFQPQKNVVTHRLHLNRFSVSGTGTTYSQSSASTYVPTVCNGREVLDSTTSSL

[3] = tested on: Human neural stem cells (hNSCs); assay: Neuronal differentiation of human neural stem cells (TUJ-1 staining); type: cell-based; conditions: for EC50: agent alone
Source text: In one non-limiting example neurogenesis, a neurogenic response, and neurodifferentiation are all measured in an in vitro assay as follows. Human neural stem cells (hNSCs) are isolated and grown in monolayer culture, plated, treated with varying concentrations of a first neurogenic agent, or a combination of a first neurogenic agent with one or more additional neurogenic agents (test compound), and stained with TUJ-1 antibody to identify neurons and/or GFAP to identify astrocytes, as described in PCT Application No. US06/026677. Mitogen-free test media with a positive control is used for neuronal differentiation, and basal media without growth factors serves as a negative control. Neurogenesis is determined, for example, by measuring the proliferation and/or differentiation of the hNSCs in the presence of varying concentrations of test compound compared to the absence of the test compound (negative control). A neurogenic response is measured, for example, in a similar manner to neurogenesis, except that astrogenesis is also measured and the ratio of neurogenesis to astrogenesis is determined to measure the neurogenic response. Neurodifferentiation is measured, for example, by detecting neurodifferentiation specific expression markers which methods are known in the art.
(§1) Human neural stem cells (hNSCs) were isolated and grown in monolayer culture, plated, treated with varying concentrations of atorvastatin (test compound), and stained with TUJ-1 antibody, as described in U.S. Provisional Application No. 60/697,905 (U.S. Patent Publication 2007/0015138). Mitogen-free test media with a positive control for neuronal differentiation was used along with basal media without growth factors as a negative control.
as §1, with “in the presence or absence of buspirone,” for “(test compound),”, “antibody for the detection of neuronal differentiation or GFAP antibody for the detection of astrocyte differentiation,” for “antibody,”
as §1, with “in the presence or absence of ribavirin,” for “(test compound),”, “antibody for the detection of neuronal differentiation or GFAP antibody for the detection of astrocyte differentiation,” for “antibody,”
as §1, with “in the presence or absence of tacrine,” for “(test compound),”, “antibody for the detection of neuronal differentiation or GFAP antibody for the detection of astrocyte differentiation,” for “antibody,”
Human neural stem cells (hNSCs) were isolated and grown in monolayer culture, plated, treated with varying concentrations of atorvastatin in the presence or absence of azakenpaullone, and stained with TUJ-1 antibody for the detection of neuronal differentiation or GFAP antibody for the detection of astrocyte differentiation, as described in U.S. Provisional Application No. 60/697,905 (U.S. Patent Publication 2007/0015138). […]

[4] = target: mGluR2 (Homo sapiens, UniProt Q14416); conditions: read-out: IC50 against mGluR2; cited from earlier work
mGluR2, sequence (Q14416 19-872): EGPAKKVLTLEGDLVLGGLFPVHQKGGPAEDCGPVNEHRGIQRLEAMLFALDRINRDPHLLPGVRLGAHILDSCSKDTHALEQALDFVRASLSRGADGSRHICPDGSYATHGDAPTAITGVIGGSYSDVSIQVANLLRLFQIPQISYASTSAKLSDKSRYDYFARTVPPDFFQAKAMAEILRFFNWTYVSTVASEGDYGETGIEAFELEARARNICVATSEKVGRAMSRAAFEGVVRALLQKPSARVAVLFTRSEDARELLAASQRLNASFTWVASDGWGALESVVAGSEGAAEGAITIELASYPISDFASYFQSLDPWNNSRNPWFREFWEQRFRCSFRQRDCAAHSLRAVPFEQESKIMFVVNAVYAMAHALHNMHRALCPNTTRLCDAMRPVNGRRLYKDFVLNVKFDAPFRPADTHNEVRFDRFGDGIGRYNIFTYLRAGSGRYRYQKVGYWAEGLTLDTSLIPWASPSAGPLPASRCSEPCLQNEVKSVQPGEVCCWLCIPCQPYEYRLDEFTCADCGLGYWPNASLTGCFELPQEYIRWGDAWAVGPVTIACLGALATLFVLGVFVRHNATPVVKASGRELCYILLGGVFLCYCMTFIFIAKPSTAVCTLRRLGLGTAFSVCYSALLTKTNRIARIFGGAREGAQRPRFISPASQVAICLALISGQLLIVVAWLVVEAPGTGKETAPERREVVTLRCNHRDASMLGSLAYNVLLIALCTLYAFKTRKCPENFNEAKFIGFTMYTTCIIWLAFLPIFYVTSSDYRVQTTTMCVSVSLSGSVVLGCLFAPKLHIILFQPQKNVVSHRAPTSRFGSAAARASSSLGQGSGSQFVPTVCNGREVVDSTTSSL

[5] = target: mGluR3 (Homo sapiens, UniProt Q14832); conditions: read-out: IC50 against mGluR3; cited from earlier work
mGluR3, sequence (Q14832 23-879): as the sequence (Q14832 23-879) above

[6] = tested on: Group I and Group III receptors; conditions: at sub-mM concentrations; cited from earlier work
[7] = tested on: KA, AMPA, and NMDA iGlu receptors; conditions: cited from earlier work
[8] = tested on: BrdU positive cells within the granule cell layer of the dentate gyrus
Procedure: Male F344 rats were dosed 1× per day for 28-days with vehicle (n=12 per dose group, p.o.), 5.0 mg/kg fluoxetine (n=12 per dose group, p.o.), 15.0 mg/kg fluoxetine (n=12 per dose group, p.o.), 10.0 mg/kg atorvastatin (n=12 per dose group, p.o.) or the combination of fluoxetine (5.0 mg/kg, p.o.)+atorvastatin (10.0 mg/kg, p.o.).
Male F344 rats were dosed 1× per day for 21-days with 0 (vehicle only), 5.0 mg/kg fluoxetine (n=12 per dose group, p.o.), 15.0 mg/kg fluoxetine (n=12 per dose group, p.o.), 10.0 mg/kg atorvastatin (n=12 per dose group, p.o.) or the combination of fluoxetine (5.0 mg/kg, p.o.)+atorvastatin (10.0 mg/kg, p.o.). BrdU was administered once daily between days 9 and 14 (100 mg/kg/day, i.p., n=12 per dose group). […] Data are presented as percent change in BrdU positive cells per cubic mm dentate gyrus. […] Data are presented as the percentage of cells colabeled for BrdU and the mature neuronal marker NeuN within the dentate gyrus.

[9] = Homo sapiens, Neural stem cell, percentage of neuronal positive control, basal media values subtracted, read-out: EC50, neuronal differentiation, agent used alone
[10] = Homo sapiens, Neural stem cell, maximum fixed to 120% for all conditions, read-out: EC50, neuronal differentiation, agent alone, maximum percent of positive control fixed to a common 120%

human mGlu2, sequence (Q14416 19-872): as the sequence (Q14416 19-872) above

Compound: NC1(C(=O)O)COC2C(C(=O)O)C21 (single isomer, unassigned; (-)) [LY379268, (−)-2-Oxa-4-aminobicyclohexane-4,6-dicarboxylic acid]
- EC50 [1]: < 0.01 µM
- EC50 [2]: < 0.01 µM

- EC50 [3, 9]: 4.5 µM
Compound: NCCc1c[nH]c2ccc(O)cc12 [serotonin]

- EC50 [3, 9]: 3.8 µM
Compound: NC(=O)c1ncn([C@@H]2O[C@H](CO)[C@@H](O)[C@H]2O)n1 [ribavirin]

- EC50 [3, 9]: 5.8 µM
Compound: O=C1CC2(CCCC2)CC(=O)N1CCCCN1CCN(c2ncccn2)CC1 [buspirone]

Compound: NC1(C(=O)O)CCc2cc(P(=O)(O)O)ccc21 (racemic) [APICA, (RS)-1-amino-5-phosphonoindan-1-carboxylic acid]
- IC50 [4]: ~30 µM
- IC50 [5]: ~30 µM
- activity against Group I or Group III receptors [6]: no appreciable activity

Compound: Clc1ccc2c(c1)N=C(N1CCNCC1)c1ccccc1N2 [N-desmethylclozapine]
- neurogenic activity in assays as disclosed herein [3]: highly neurogenic

- EC50 [3, 10]: 0.33 µM
- EC50 [3, 9]: 1.1 µM
Compound: O=C1Cc2c([nH]c3ccc(Br)cc23)-c2ncccc2N1 [azakenpaullone]
- maximum percent of positive control neuronal differentiation ([3]; addition of azakenpaullone): greater than 100%

Compound: N[C@](CC1c2ccccc2Oc2ccccc21)(C(=O)O)[C@H]1C[C@@H]1C(=O)O [LY341495, (2S)-2-amino-2-(1S,2S-2-carboxycycloprop-1-yl)-3-(xanth-9-yl) propanoic acid]
- activity against KA, AMPA, and NMDA iGlu receptors [7]: substantially inactive

Compound: Nc1c2c(nc3ccccc13)CCCC2 [tacrine]
- EC50 [3, 9]: 7.4 µM

- EC50 [3, 9]: 4.8 µM
Compound: Nc1nc2ncc(CNc3ccc(C(=O)N[C@@H](CCC(=O)O)C(=O)O)cc3)nc2c(=O)[nH]1 [folic acid]

- EC50 [3, 10]: 0.004 µM
- EC50 ([3]; percentage of neuronal positive control, basal media values subtracted, read-out: EC50, neuronal differentiation, agent used alone): 0.0031 µM
Compound: CC(C)c1c(C(=O)Nc2ccccc2)c(-c2ccccc2)c(-c2ccc(F)cc2)n1CC[C@@H](O)C[C@@H](O)CC(=O)O [atorvastatin]
- neuronal differentiation, result in words ([3]; percent of neuronal positive control, combination relative to either agent alone): promoted neuronal differentiation
- number of BrdU positive cells (percent change per cubic mm dentate gyrus) ([8]; 10.0 mg/kg atorvastatin p.o. 1× per day): significantly increased
- number of new neurons within the granule cell layer of the dentate gyrus ([8]; atorvastatin 10.0 mg/kg p.o. alone or with fluoxetine 5.0 mg/kg p.o., 1× per day): significant increase
